From PubChem BioAssay AID248 (DTP/NCI, 2004)
“And” between values parts separate entries of the source, which are not always exact repeats. Equal values may be shown once. Inconclusive results and toxic doses are left out.

Tested on: L1210 leukemia ip in BDF1 mice, survival T/C
Test: NCI In Vivo Anticancer Drug Screen. Data for tumor model L1210 Leukemia (intraperitoneal) in B6D2F1 (BDF1) mice
Details: endpoint: mean survival time, higher = longer survival
In short: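 Read-out is survival time, reported as the treated-group measurement over the vehicle-control measurement.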

[1] = dose: 10.0 mg/kg/injection, schedule: Q01DX001 (ip), vehicle: saline
[2] = dose: 20.0 mg/kg/injection, schedule: Q01DX001 (ip), vehicle: saline
[3] = dose: 100.0 mg/kg/injection, schedule: Q04DX003 (ip), vehicle: Klucel (hydroxypropylcellulose) (HPC)
[4] = dose: 200.0 mg/kg/injection, schedule: Q04DX003 (ip), vehicle: Klucel (hydroxypropylcellulose) (HPC)
[5] = dose: 400.0 mg/kg/injection, schedule: Q04DX003 (ip), vehicle: Klucel (hydroxypropylcellulose) (HPC)
[6] = dose: 100.0 mg/kg/injection, schedule: Q01DX009 (ip), vehicle: saline with Tween-80
[7] = dose: 200.0 mg/kg/injection, schedule: Q01DX009 (ip), vehicle: saline with Tween-80
[8] = dose: 400.0 mg/kg/injection, schedule: Q01DX009 (ip), vehicle: saline with Tween-80
[9] = dose: 100.0 mg/kg/injection, schedule: Q01DX001 (ip), vehicle: saline
[10] = dose: 200.0 mg/kg/injection, schedule: Q01DX001 (ip), vehicle: saline
[11] = dose: 400.0 mg/kg/injection, schedule: Q01DX001 (ip), vehicle: saline
[12] = dose: 100.0 mg/kg/injection, schedule: Q04DX003 (ip), vehicle: saline
[13] = dose: 200.0 mg/kg/injection, schedule: Q04DX003 (ip), vehicle: saline

Nc1nc(N)c2nc(CN(CCO)c3ccc(C(=O)NC(CCC(=O)O)C(=O)O)cc3)cnc2n1 (stereo not drawn)
T/C (dose: 1.0 mg/kg/injection, schedule: Q01DX009 (ip), vehicle: sodium bicarbonate): 151 % of control | T/C (dose: 2.0 mg/kg/injection, schedule: Q01DX009 (ip), vehicle: Klucel (hydroxypropylcellulose) (HPC)): 174 % of control | T/C (dose: 2.0 mg/kg/injection, schedule: Q01DX009 (ip), vehicle: sodium bicarbonate): 172 % of control | T/C (dose: 4.0 mg/kg/injection, schedule: Q01DX009 (ip), vehicle: Klucel (hydroxypropylcellulose) (HPC)): 160 % of control | T/C (dose: 4.0 mg/kg/injection, schedule: Q01DX009 (ip), vehicle: sodium bicarbonate): 178 % of control | T/C (dose: 8.0 mg/kg/injection, schedule: Q01DX009 (ip), vehicle: Klucel (hydroxypropylcellulose) (HPC)): 151 % of control | T/C (dose: 8.0 mg/kg/injection, schedule: Q01DX009 (ip), vehicle: sodium bicarbonate): 113 % of control | T/C (dose: 16.0 mg/kg/injection, schedule: Q01DX009 (ip), vehicle: Klucel (hydroxypropylcellulose) (HPC)): 108 % of control | T/C (dose: 16.0 mg/kg/injection, schedule: Q01DX009 (ip), vehicle: sodium bicarbonate): 89 % of control | T/C (dose: 32.0 mg/kg/injection, schedule: Q01DX009 (ip), vehicle: Klucel (hydroxypropylcellulose) (HPC)): 96 % of control

CCCCCCCCCCCCCC[Si](Cl)(Cl)Cl
T/C (dose: 75.0 mg/kg/injection, schedule: Q01DX001 (ip), vehicle: saline): 94 % of control | T/C (dose: 150.0 mg/kg/injection, schedule: Q01DX001 (ip), vehicle: saline): 92 % of control

Brc1cccc[n+]1CCCC[n+]1ccccc1Br
T/C (dose: 2.2 mg/kg/injection, schedule: Q01DX Z (ip), vehicle: saline): 96 % of control | T/C (dose: 3.3 mg/kg/injection, schedule: Q01DX Z (ip), vehicle: saline): 100 % of control | T/C (dose: 5.0 mg/kg/injection, schedule: Q01DX Z (ip), vehicle: saline): 87 % of control | T/C [1]: 96 % of control | T/C [2]: 93 % of control

CCOC(=O)/C(=C\c1ccccn1)C(=O)c1cccnc1
T/C [3]: 102 % of control | T/C [4]: 105 % of control | T/C [5]: 118 % of control

O=C(CC(Cl)(C(F)(F)F)C(F)(F)F)c1cccc([N+](=O)[O-])c1
T/C (dose: 12.5 mg/kg/injection, schedule: Q01DX009 (ip), vehicle: saline with Tween-80): 91 % of control | T/C (dose: 12.5 mg/kg/injection, schedule: Q04DX003 (ip), vehicle: saline with Tween-80): 96 % of control | T/C (dose: 25.0 mg/kg/injection, schedule: Q01DX009 (ip), vehicle: saline with Tween-80): 96 % of control | T/C (dose: 25.0 mg/kg/injection, schedule: Q04DX003 (ip), vehicle: saline with Tween-80): 98 % of control | T/C (dose: 50.0 mg/kg/injection, schedule: Q01DX009 (ip), vehicle: saline with Tween-80): 96 % of control | T/C (dose: 50.0 mg/kg/injection, schedule: Q04DX003 (ip), vehicle: saline with Tween-80): 100 % of control

COc1c(NC(=O)COc2ccc(Cl)cc2)cccc1[N+](=O)[O-]
T/C [6]: 96 % of control | T/C [7]: 100 % of control | T/C [8]: 94 % of control

CS(=O)(=O)c1nc2ccccc2[nH]1
T/C (dose: 100.0 mg/kg/injection, schedule: Q04DX002 (ip), vehicle: Klucel (hydroxypropylcellulose) (HPC)): 105 % of control | T/C (dose: 200.0 mg/kg/injection, schedule: Q04DX002 (ip), vehicle: Klucel (hydroxypropylcellulose) (HPC)): 97 % of control

NC(=O)c1cc([N+](=O)[O-])c(N)c([N+](=O)[O-])c1
T/C (dose: 100.0 mg/kg/injection, schedule: Q01DX001 (ip), vehicle: saline with Tween-80): 100 % of control | T/C (dose: 200.0 mg/kg/injection, schedule: Q01DX001 (ip), vehicle: saline with Tween-80): 95 % of control | T/C (dose: 400.0 mg/kg/injection, schedule: Q01DX001 (ip), vehicle: saline with Tween-80): 100 % of control

CC(=O)OCC1OC(SSc2ccccc2)C(OC(C)=O)C(OC(C)=O)C1OC(C)=O (stereo not drawn)
T/C [9]: 98 % of control | T/C [10]: 89 % of control | T/C [11]: 89 % of control

CC1=CC2C(O)(CC(CO)=CC3C4C(C)(C)C4(O)C(O)C(C)C32O)C1=O (stereo not drawn)
T/C (dose: 50.0 mg/kg/injection, schedule: Q01DX001 (ip), vehicle: saline sonified): 112 % of control | T/C (dose: 100.0 mg/kg/injection, schedule: Q01DX001 (ip), vehicle: saline sonified): 101 % of control | T/C (dose: 200.0 mg/kg/injection, schedule: Q01DX001 (ip), vehicle: saline sonified): 91 % of control

N#CCCCCCCn1cnc2c(=S)nc[nH]c21
T/C [3]: 104 % of control | T/C [4]: 107 % of control | T/C [5]: 107 % of control

CC1=CP(=O)(O)CC1
T/C (dose: 50.0 mg/kg/injection, schedule: Q01DX009 (ip), vehicle: saline): 113 % of control | T/C (dose: 100.0 mg/kg/injection, schedule: Q01DX009 (ip), vehicle: saline): 103 % of control | T/C [12]: 95 % of control | T/C (dose: 200.0 mg/kg/injection, schedule: Q01DX009 (ip), vehicle: saline): 98 % of control | T/C [13]: 93 % of control

CC(O)c1cc(Cl)ccc1Cl (stereo not drawn)
T/C [6]: 87 % of control | T/C (dose: 100.0 mg/kg/injection, schedule: Q04DX003 (ip), vehicle: saline with Tween-80): 101 % of control and 107 % of control | T/C [7]: 103 % of control | T/C (dose: 200.0 mg/kg/injection, schedule: Q04DX003 (ip), vehicle: saline with Tween-80): 107 % of control | T/C [8]: 92 % of control | T/C (dose: 400.0 mg/kg/injection, schedule: Q04DX003 (ip), vehicle: saline with Tween-80): 98 % of control and 92 % of control

CCN(CC)CCCC(C)NC(=O)c1cc(=O)[nH]c(=O)[nH]1 (stereo not drawn)
T/C (dose: 25.0 mg/kg/injection, schedule: Q01DX009 (ip), vehicle: water): 106 % of control | T/C (dose: 50.0 mg/kg/injection, schedule: Q01DX009 (ip), vehicle: water): 96 % of control | T/C (dose: 100.0 mg/kg/injection, schedule: Q01DX009 (ip), vehicle: water): 103 % of control and 91 % of control | T/C (dose: 100.0 mg/kg/injection, schedule: Q04DX003 (ip), vehicle: water): 104 % of control | T/C (dose: 200.0 mg/kg/injection, schedule: Q04DX003 (ip), vehicle: water): 101 % of control

CC(C)(C)COC(=O)C(C)(C)C
T/C [9]: 117 % of control | T/C [10]: 112 % of control | T/C [11]: 102 % of control

Cc1cc(C)c(NS(=O)(=O)c2ccccc2)c(C)c1Br
T/C (dose: 75.0 mg/kg/injection, schedule: Q04DX003 (ip), vehicle: Klucel (hydroxypropylcellulose) (HPC)): 95 % of control | T/C (dose: 150.0 mg/kg/injection, schedule: Q04DX003 (ip), vehicle: Klucel (hydroxypropylcellulose) (HPC)): 94 % of control | T/C (dose: 300.0 mg/kg/injection, schedule: Q04DX003 (ip), vehicle: Klucel (hydroxypropylcellulose) (HPC)): 94 % of control

CCCCc1ccc(C(=O)O)nc1.[Cu+2]
T/C (dose: 5.0 mg/kg/injection, schedule: Q01DX001 (ip), vehicle: saline): 97 % of control | T/C [1]: 105 % of control | T/C [2]: 106 % of control

CC(C)(C)C(O)(C(=O)O)C(C)(C)C
T/C (dose: 50.0 mg/kg/injection, schedule: Q01DX001 (ip), vehicle: saline): 110 % of control | T/C [9]: 98 % of control | T/C [10]: 104 % of control | T/C [11]: 100 % of control

O=C(NC(C(O)CO)C(O)C(O)CO)c1ccccc1 (stereo not drawn)
T/C [12]: 104 % of control | T/C [13]: 105 % of control | T/C (dose: 400.0 mg/kg/injection, schedule: Q04DX003 (ip), vehicle: saline): 102 % of control

O=C1c2ccccc2C(C2c3ccccc3C(=O)c3ccccc32)c2ccccc21
T/C (dose: 50.0 mg/kg/injection, schedule: Q01DX001 (ip), vehicle: carboxymethylcellulose (CMC)): 89 % of control | T/C (dose: 100.0 mg/kg/injection, schedule: Q01DX001 (ip), vehicle: carboxymethylcellulose (CMC)): 89 % of control | T/C (dose: 400.0 mg/kg/injection, schedule: Q01DX001 (ip), vehicle: carboxymethylcellulose (CMC)): 86 % of control
